From US10363239B2, “Method for inhibiting growth of cancer cells” (Pain Therapeutics, Inc., priority 2013, dated 2019)

Key:
melanoma cells = test: Cell proliferation by cell-cycling markers Ki67 and PCNA (Western blots); type: cell-based, human; conditions: 0.1-5 nM; 4 days
Description: The effect of contact with Compound C0105 on cell proliferation was determined by the levels of cell-cycling markers: Ki67 and PCNA (proliferating cell nuclear antigen) using Western blots in human melanoma cells. Cells treated with vehicle and 0.1-5 nM C0105 for 4 days were collected, washed and solubilized (lysed). The resultant cell lysates were size-fractionated on SDS-PAGE and Western blotting to determine the levels of Ki67, PCNA and actin (loading control). The protein bands were quantified using densitometric scanning. […] N=4. *p<0.01 compared to vehicle (open bars).
To study the effect of Compound C0105 on PI3K activity, the cancer and primary normal cells were cultured to approximately 60-70% confluency, serum deprived for 4 hours, briefly washed with PBS and treated with vehicle or 0.1, 0.5, 1 or 5 nM Compound C0105 for 24 hours with in 0.1% FBS-containing culture medium. The cells were then washed with PBS, scraped off and collected by centrifugation. The cell pellets were sonicated in ice-cold immunoprecipitation buffer and protein concentrations measured by the Bradford method. […]
Immunoreactivity was visualized by reaction in ECL Plus chemiluminescent reagent for exactly 5 minutes, followed by immediate exposure of the blot to X-ray film (Z & Z Medical). Bands at the relevant molecular masses of Ki67 and PCNA were quantified by densitometric scan. […]

[1] = system: pS2448mTOR, pS473Akt, pY/pT-ERK2 in glioblastoma cells; test: Activated (phosphorylated) mTOR, Akt and ERK2 levels (immunoprecipitation, Western blotting); type: cell-based, human; conditions: 0.1-5 nM; 4 days
Description: FIG. 10A through FIG. 10C illustrate the effect of contact with Compound C0105 on the levels of activated (phosphorylated) mTOR (pS^2448mTOR), Akt (pS^473Akt) and ERK2 (pY/pT-ERK2) in glioblastoma cells. Cells were treated with vehicle and 0.1-5 nM C0105 for 4 days. Cells were washed, solubilized and the resultant cell lysate was immunoprecipitated with anti-mTOR, -Akt or -ERK2. The levels of pS^2448mTOR, pS^473Akt, pY/pTERK2 in the respective anti-mTOR, -Akt, and -ERK2 immunoprecipitates were determined by Western blotting. The density of protein bands was measured by densitometric scanning. […] N=4. *p<0.01 compared to vehicle (open bars). […]
(§1) The cell lysates were diluted 5-fold with immunoprecipitation buffer and immunoprecipitated with anti-FLNA, -Akt, -mTOR and -ERK2 as described previously [Talbot et al., J Clin Inv 122(4):1-23 (2012); Wang et al., J Neurosci 32(29):9773-9784 (2012)]. The levels of FLNA linkages, activated phosphorylated Akt (pS^473 and pT^308), phosphorylated mTOR (pS^2448) and phosphorylated ERK2 (pY/pT) were determined in anti-FLNA, -Akt, -mTOR and -ERK2 immunoprecipitates by Western blotting with appropriate antibodies directed against PTEN, PP2A, K-RAS, ras-GAP (FLNA linkages), pS^473Akt, pT^308Akt, pS^2448mTOR and pY/pT ERK2 (activation of Akt, mTOR and ERK2).

[2] = system: metastatic (liver) neuroendocrine tumor cells; test: Cell proliferation by Ki67 and PCNA (Western blotting); type: cell-based, human; conditions: 1 nM; 4 days
MiaPaCa2 cell implants = test: Xenograft survival study; type: in vivo, Nu/Nu mice; conditions: 100 mg/kg
Description: FIGS. 34A and 34B illustrate Kaplan-Meier survival curves (FIG. 34A) and averaged tumor volumes (FIG. 34B) in a xenograft study in which MiaPaCa2 cells were implanted in Nu/Nu mice. […] FIG. 34B illustrates average tumor volumes (mm3) in mice treated with vehicle alone (black diamonds), gemcitabine (open squares), Compound C0105 at 10 mg/kg (black triangles) and Compound C0105 at 100 mg/kg (open diamonds).
Mice were monitored individually and the treatment effect was compared to each mouse's own original tumor on the treatment day 0. The endpoint of the study was a tumor volume of 1500 mm^3 or 45 days, whichever comes first. The animals were euthanized when the endpoint was reached. Responders were followed longer (survival study). The Table below illustrates the drug treatment administered to the mice.
A third xenograft study was designed to measure survival rather than tumor volume at a designated time point.

[3] = system: pS2152FLNA, FLNA-associated PTEN and PP2A in primary human pancreatic epithelial cells (HPEC); test: pS2152FLNA and FLNA-associated PTEN and PP2A in anti-FLNA immunoprecipitate (Western blotting); type: cell-based; conditions: 0.1-5 nM; 4 days
Description: The effect of contact with Compound C0105 on the levels of pS^2152FLNA and FLNA-associated phosphatases, PTEN and PP2A subclasses was determined in MiaPaCa2 and HPECs. Cells were contacted with vehicle and 0.1-5 nM Compound C0105 for 4 days. Cells were washed, solubilized and the cell lysate derived was immunoprecipitated with anti-FLNA. The levels of […] and FLNA-associated phosphatases, PTEN and PP2A subclasses in the anti-FLNA immunoprecipitate were determined by Western blotting. The density of protein bands was quantified by densitometric scan. […] Data are expressed as mean±S.E.M. of ratios (FIGS. 27C, 27E and 27G) and percentage inhibition (FIGS. 27D, 27F and 27H). […] N=4. **p<0.05, *p<0.01 compared to vehicle (open bars). […]
as §1

Structure (SMILES): CN1CCC2(CC1)NCC(=O)N2Cc1ccccc1 [Compound C0105]
- Cell proliferation (Ki67 and PCNA levels) (melanoma cells): reduces cell proliferation
- mTOR, Akt and ERK activation (phosphorylated mTOR, Akt and ERK) [1]: robustly reduces mTOR, Akt and ERK activation
- Cell proliferation (Ki67 and PCNA levels) [2]: Inhibits Proliferation
- Tumors shrunk to undetectable (MiaPaCa2 cell implants): completely shrunk tumors to being undetectable in three high-dose (100 mg/kg) mice
- Tumor shrinkage compared to mice receiving vehicle (MiaPaCa2 cell implants; mouse found dead at 30 days): more than 90%
- Phosphatase (PTEN, PP2A) associations with FLNA [3]: no effect
- pS2152FLNA level [3]: no effect
